{
  "source": "BindingDB's records for patent US10836741",
  "about": "(Valo Early Discovery, Inc., 2020)",
  "biological_target": "T1, Ubiquitin carboxyl-terminal hydrolase 7 [208-1102] (Human, UniProt Q93009)",
  "T1 construct": "208-1102",
  "T1 sequence (Q93009 208-1102)": "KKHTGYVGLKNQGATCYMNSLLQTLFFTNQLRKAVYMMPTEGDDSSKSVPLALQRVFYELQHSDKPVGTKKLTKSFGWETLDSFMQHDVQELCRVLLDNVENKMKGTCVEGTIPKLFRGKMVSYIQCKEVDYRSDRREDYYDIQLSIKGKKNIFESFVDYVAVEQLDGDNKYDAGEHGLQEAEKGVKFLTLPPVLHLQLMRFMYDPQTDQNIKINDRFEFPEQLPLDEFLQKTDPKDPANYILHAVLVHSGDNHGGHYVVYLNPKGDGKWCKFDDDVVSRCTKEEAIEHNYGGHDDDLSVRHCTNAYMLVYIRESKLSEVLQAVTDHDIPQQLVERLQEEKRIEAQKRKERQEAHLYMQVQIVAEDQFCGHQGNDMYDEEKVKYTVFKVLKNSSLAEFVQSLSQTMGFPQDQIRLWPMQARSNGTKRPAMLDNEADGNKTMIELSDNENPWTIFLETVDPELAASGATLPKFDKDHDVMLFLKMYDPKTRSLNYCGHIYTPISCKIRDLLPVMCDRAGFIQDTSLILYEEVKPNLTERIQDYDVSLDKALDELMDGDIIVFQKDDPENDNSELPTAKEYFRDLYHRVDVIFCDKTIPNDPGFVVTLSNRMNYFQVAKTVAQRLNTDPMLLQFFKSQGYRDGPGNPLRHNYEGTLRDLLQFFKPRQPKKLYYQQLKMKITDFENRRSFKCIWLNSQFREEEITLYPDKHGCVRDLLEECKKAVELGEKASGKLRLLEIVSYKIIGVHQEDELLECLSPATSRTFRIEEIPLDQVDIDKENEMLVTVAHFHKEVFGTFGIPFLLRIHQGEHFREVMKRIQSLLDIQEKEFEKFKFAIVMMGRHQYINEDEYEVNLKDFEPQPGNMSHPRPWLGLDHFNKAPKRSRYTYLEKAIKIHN",
  "test": "USP7 Assay A (Ubitquin-Rhodamine 110 Assay)",
  "experimental": "Each assay was performed in a final volume of 15 μL in assay buffer containing 20 mM Tris-HCl (pH 8.0, (1M Tris-HCl, pH 8.0 solution; Corning 46-031-CM)), 1 mM GSH (L-Glutathione reduced; Sigma # G4251), 0.03% BGG (0.22 μM filtered, Sigma, # G7516-25G), and 0.01% Triton X-100 (Sigma, # T9284-10L). Nanoliter quantities of either an 8-point or 10-point, 3-fold serial dilution in DMSO was pre-dispensed into assay plates (Perkin Elmer, ProxiPlate-384 F Plus, #6008269) for a final test concentration range of either 25 μM to 11 nM or 25 μM to 1.3 nM, respectively. The final concentration of the enzyme (USP7, construct USP7 (208-1102) 6*His, Viva Biotech) in the assay was 62.5 pM. Final substrate (Ub-Rh110; Ubiquitin-Rhodamine 110, R&D Systems # U-555) concentration was 25 nM with [Ub-Rh110]<<Km. 5 μL of 2× enzyme was added to assay plates (pre-stamped with compound) preincubated with USP7 for 30 min and then 5 μL of 2×Ub-Rh110 was added to assay plates. Plates were incubated stacked for 20 min at room temperature before 5 μL of stop solution (final concentration of 10 mM citric acid in assay buffer (Sigma, #251275-500G)). Fluorescence was read on the Envision (Excitation at 485 nm and Emission at 535 nm; Perkin Elmer) or on the PheraSTAR (Excitation at 485 nm and Emission at 535 nm; BMG Labtech).",
  "note": "pIC50: −log10 of the molar value.",
  "data": [
    {"smiles": "COc1cccc2c(=O)n(CC3(O)CCN(C(=O)CC(C)c4ccccc4)CC3)cnc12", "note": "(stereo unspecified) [US10836741, Example I-6]", "values": [
      {"measurement": "pIC50", "result": "> 6.70"}
    ]}
  ]
}
